Assay results taken from PubChem BioAssay (NCI).
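All cell lines were grown in 96-well plates and treated with compound for 48 hours. GI50 marks 50% less growth. TGI: concentration producing complete growth inhibition.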

Columns and labels:
Experiment in all cases: NCI anticancer screen, dose series, 48 h
RXF 393 renal = tested on: RXF 393 renal
RPMI-8226 leukemia = tested on: RPMI-8226 leukemia
LOX IMVI melanoma = tested on: LOX IMVI melanoma
OVCAR-8 ovarian = tested on: OVCAR-8 ovarian
TK-10 renal = tested on: TK-10 renal
SK-MEL-28 melanoma = tested on: SK-MEL-28 melanoma
HS 578T breast = tested on: HS 578T breast
MDA-MB-435 = tested on: MDA-MB-435
SF-295 CNS = tested on: SF-295 CNS
HL-60(TB) leukemia = tested on: HL-60(TB) leukemia

Row | Compound | GI50 (RXF 393 renal) | TGI (RXF 393 renal) | GI50 (RPMI-8226 leukemia) | TGI (RPMI-8226 leukemia) | GI50 (LOX IMVI melanoma) | TGI (LOX IMVI melanoma) | GI50 (OVCAR-8 ovarian) | TGI (OVCAR-8 ovarian) | GI50 (TK-10 renal) | TGI (TK-10 renal) | GI50 (SK-MEL-28 melanoma) | TGI (SK-MEL-28 melanoma) | GI50 (HS 578T breast) | TGI (HS 578T breast) | GI50 (MDA-MB-435) | TGI (MDA-MB-435) | GI50 (SF-295 CNS) | TGI (SF-295 CNS) | GI50 (HL-60(TB) leukemia) | TGI (HL-60(TB) leukemia)
1 | Cc1ccc(N2C(=O)C(Cl)=C(Nc3cccc(O)c3)C2=O)cc1Cl | 0.549 µM | 22.2 µM | 3.95 µM | 28.6 µM | 16.4 µM | 33.2 µM | 16.8 µM | 43.5 µM | 18.5 µM | 33.4 µM | 22.4 µM | 49.8 µM | 17.4 µM | 42.1 µM | 16.6 µM | 34 µM | 17.8 µM | 36.5 µM | – | –
2 | CCCCc1cc(O)ccc1O | 16.7 µM | > 100 µM | 3.13 µM | 26.6 µM | 14.6 µM | 63.6 µM | 28.2 µM | > 100 µM | 17.9 µM | 42.8 µM | 78.7 µM | > 100 µM | 18.7 µM | > 100 µM | 22 µM | 62.1 µM | 42.7 µM | > 100 µM | 2.56 µM | 6.77 µM
3 | CC/C=C\C[C@H](O)C/C=C1/C(=O)C=C[C@@H]1C/C=C\CCCC(N)=O | 1.94 µM | 3.69 µM | 1.14 µM | 5.24 µM | 0.35 µM | 1.69 µM | 3.03 µM | 11.4 µM | 3.16 µM | 6.95 µM | 1.93 µM | 4.26 µM | 5.29 µM | 32.4 µM | 1.72 µM | 5.24 µM | 2.52 µM | 6.23 µM | – | –
4 | C=C1C(=O)O[C@H]2[C@H]1CC/C(COC(=O)c1ccc(C(=O)O)s1)=C\CC[C@@]1(C)O[C@@H]21 | 1.97 µM | 3.92 µM | 1.97 µM | 5.98 µM | 1.49 µM | 3.08 µM | 2.69 µM | 7.84 µM | 1.64 µM | 3.44 µM | 2.1 µM | 4.83 µM | 4.79 µM | 64.5 µM | 1.92 µM | 4 µM | 5.65 µM | 18.7 µM | – | –
5 | Cc1ccc(-c2cc3nc(-c4ccccc4)nc(C(Cl)Cl)n3n2)cc1 | 0.845 µM | 1.88 µM | 0.802 µM | 3.45 µM | > 50 µM | > 50 µM | 1.16 µM | 4.74 µM | 0.944 µM | 1.8 µM | 1.54 µM | 5.32 µM | 0.932 µM | 2.31 µM | 1.14 µM | 2.71 µM | 0.955 µM | 1.95 µM | 1.39 µM | 4.06 µM
6 | O=C1Cc2c(-c3ccccc3)cc(-c3cccc(Cl)c3)nc2-c2ccccc2N1 | – | 6.28 µM | – | > 93 µM | – | 7.28 µM | – | 5.4 µM | – | 3.62 µM | – | 25.8 µM | – | 9.85 µM | – | > 59.9 µM | – | 28.6 µM | – | > 100 µM
7 | COC1C(=O)CCC2(CO2)C1(O)C1(C)OC1CCC(C)C (stereo not given) | – | > 100 µM | – | > 100 µM | – | – | – | > 100 µM | – | – | – | > 100 µM | – | > 100 µM | – | > 100 µM | – | > 100 µM | – | > 100 µM
8 | O=C1OCC2=Nc3cccc4cccc(c34)N12 | – | > 100 µM | – | – | – | > 100 µM | – | > 100 µM | – | > 100 µM | – | > 100 µM | – | > 100 µM | – | > 100 µM | – | > 100 µM | – | > 100 µM
9 | C=C1C(O)C2C(=C(CC(C)C)C13CC3)C(=O)C(C)(C)C2OC (stereo not given) | > 100 µM | > 100 µM | 65.3 µM | > 100 µM | > 100 µM | > 100 µM | > 100 µM | > 100 µM | > 100 µM | > 100 µM | > 100 µM | > 100 µM | > 100 µM | > 100 µM | > 100 µM | > 100 µM | > 100 µM | > 100 µM | – | –
10 | NC(N)=N/N=C/c1c(-c2cc(Cl)sc2Cl)nc2n1CCS2 | 10.8 µM | 22.4 µM | 9.34 µM | 19.4 µM | 8.33 µM | 15.8 µM | 10.3 µM | 22.1 µM | 8.65 µM | 15.8 µM | – | – | 9.23 µM | 21.8 µM | 11.1 µM | 19.7 µM | 8.75 µM | 17.1 µM | – | –
11 | OC1CCC(C2C3CCCCC3C3CCCCC3C2C2CCC(O)CC2)CC1 (stereo not given) | – | 7.06 µM | – | 59.1 µM | – | – | – | 20.4 µM | – | 34.9 µM | – | 9.59 µM | – | > 100 µM | – | 24.6 µM | – | 27.3 µM | – | 62.2 µM
12 | O=C1C=C(c2cc(Br)c(O)c(Br)c2)/C(=C/c2cc(Br)c(O)c(Br)c2)O1 | 1.82 µM | 23.6 µM | 22.2 µM | 66.7 µM | 14.9 µM | 43.2 µM | 29 µM | > 75 µM | 35.8 µM | > 75 µM | 34.8 µM | > 75 µM | 33.9 µM | > 75 µM | 33.6 µM | > 75 µM | 29.4 µM | > 75 µM | – | –
13 | c1ccc2c(NCCCCCCCCNc3c4ccccc4nc4ccccc34)c3ccccc3nc2c1 | – | 0.387 µM | – | – | – | – | – | 2.45 µM | – | 5.98 µM | – | – | – | – | – | 2.35 µM | – | 2.21 µM | – | –
14 | CN(C)CCNc1cccc2sc3ccc(O)cc3c(=O)c12 | 1.95 µM | 7.38 µM | 1.84 µM | 4.98 µM | – | – | 2.16 µM | 9.78 µM | 5.58 µM | 17.5 µM | 1.74 µM | 3.88 µM | 1.75 µM | 11.8 µM | 1.49 µM | 3.16 µM | 6.53 µM | 22.3 µM | 1.53 µM | 3.74 µM
15 | CN(C)CCNC(=O)c1cccc(CO)c1[N+](=O)[O-] | – | – | – | – | – | – | – | > 100 µM | – | > 100 µM | – | > 100 µM | – | > 100 µM | – | > 100 µM | – | > 100 µM | – | > 100 µM
16 | CCC(=O)N1C/C(=C/c2ccc(OC)cc2)C(=O)/C(=C/c2ccc(OC)cc2)C1 | 1.72 µM | 3.17 µM | 0.231 µM | 0.748 µM | 0.95 µM | 2.28 µM | 2.86 µM | > 100 µM | 2.72 µM | 6.54 µM | 1.85 µM | 3.74 µM | 2.35 µM | 7.47 µM | 1.23 µM | 4.42 µM | – | – | 2.98 µM | 53.1 µM
